The target in assay [1] is T1, MAGL (Mus musculus, UniProt O35678).
T1 construct: Proteomes (mouse brain membrane fraction or cell lysates); from tissue; host or cells: mouse brain membrane fraction (or cell lysates)
T1 sequence (O35678 1-303): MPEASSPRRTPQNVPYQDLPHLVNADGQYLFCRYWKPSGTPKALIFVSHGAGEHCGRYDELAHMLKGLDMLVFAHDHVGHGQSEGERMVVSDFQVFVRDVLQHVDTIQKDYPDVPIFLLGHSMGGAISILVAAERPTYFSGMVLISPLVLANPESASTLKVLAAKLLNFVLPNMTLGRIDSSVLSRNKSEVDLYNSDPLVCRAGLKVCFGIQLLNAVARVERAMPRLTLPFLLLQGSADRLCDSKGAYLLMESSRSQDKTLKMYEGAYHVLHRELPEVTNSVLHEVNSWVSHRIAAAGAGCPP
As to the kind of experiment: Mouse brain proteomes from inhibitor treated mice (oral gavage, sacrificed 4 h after administration). In kind it is in vivo. Conditions: read-out: MAGL % inh. 5 mg/kg. An outline of the steps:
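Brains were collected 4 h after oral gavage dosing of wild-type C57Bl/6J mice, vehicle polyethylene glycol. Proteomes from these brains were then analyzed for MAGL and other serine hydrolase activity.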

The next assay addresses T2, FAAH (Mus musculus, UniProt O08914).
T2 construct: Proteomes (mouse brain membrane fraction or cell lysates); from tissue; host or cells: mouse brain membrane fraction (or cell lysates)
T2 sequence (O08914 1-579): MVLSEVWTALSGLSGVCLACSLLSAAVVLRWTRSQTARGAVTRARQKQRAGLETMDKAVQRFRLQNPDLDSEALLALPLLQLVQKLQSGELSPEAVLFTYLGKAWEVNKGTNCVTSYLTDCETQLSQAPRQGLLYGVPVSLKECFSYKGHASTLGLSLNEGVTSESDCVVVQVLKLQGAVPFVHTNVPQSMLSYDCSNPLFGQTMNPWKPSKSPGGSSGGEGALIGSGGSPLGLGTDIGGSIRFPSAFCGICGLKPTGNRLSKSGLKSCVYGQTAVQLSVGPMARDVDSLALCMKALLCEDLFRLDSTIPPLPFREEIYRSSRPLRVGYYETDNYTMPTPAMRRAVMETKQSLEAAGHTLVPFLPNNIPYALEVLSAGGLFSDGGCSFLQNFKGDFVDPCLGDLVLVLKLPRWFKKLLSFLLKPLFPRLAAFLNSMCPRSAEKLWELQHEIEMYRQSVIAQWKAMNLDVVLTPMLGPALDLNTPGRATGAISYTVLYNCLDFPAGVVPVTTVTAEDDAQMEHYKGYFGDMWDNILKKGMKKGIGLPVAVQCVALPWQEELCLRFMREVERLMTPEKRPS
The assay can be described thus: In vitro competitive activity-based protein profiling (mouse), FAAH gel band. In kind it is biochemical. The settings on record: for pIC50: mouse; for inhibition at 1 µM: read-out: FAAH % inh. 1 μM. An outline of the steps:
(§1)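 Competitive ABPP: inhibitors at varying concentrations were given 30 min at 37 °C with mouse brain membranes or cell lysates (1.0 mg/mL total protein) before 30 min labelling by FP-Rh or HT-01 (stock 50 μM in DMSO). Residual hydrolase activity read as in-gel fluorescence of MAGL and FAAH bands.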

Assay [2] addresses T1, MAGL. The assay can be described thus: In vitro competitive activity-based protein profiling (mouse), MAGL gel band. Format: biochemical. Conditions: for pIC50: mouse; for inhibition at 1 µM: read-out: MAGL % inh. 1 μM. An outline of the steps:
as §1

pIC50: −log10 of the molar value. Where only a bound is given, the exact number is not on record here.

The term pIC50 denotes the IC50 on a negative log10 scale, so that one unit is a factor of ten. A low value points to a high IC50. As to `CC(=O)Nc1ccn(C(=O)N2CCC3(CCCN3Cc3ccc(C(F)(F)F)cc3Oc3cncnc3)CC2)n1` [Example 83, N-(1-(1-(2-(pyrimidin-5-yloxy)-4-(trifluoromethyl)benzyl)-1,8-diazaspiro[4.5]decane-8-carbonyl)-1H-pyrazol-3-yl)acetamide], the inhibition at 5 mg/kg on MAGL [1] was 0 to 25%. The figures for the pIC50 at FAAH and at MAGL [2] were 5.00 to 6.00 and ≥ 7.00, respectively. Besides, the inhibition at 1 µM at FAAH is 0 to 25%; on MAGL [2] it was ≥ 75%.

As for `CC(=O)Nc1ccn(C(=O)N2CCC3(CCCN3Cc3cc(Oc4cncnc4)cc(C(F)(F)F)c3)CC2)n1` [Example 84, N-(1-(1-(3-(pyrimidin-5-yloxy)-5-(trifluoromethyl)benzyl)-1,8-diazaspiro[4.5]decane-8-carbonyl)-1H-pyrazol-3-yl)acetamide], at MAGL [1], the inhibition at 5 mg/kg was in the range of 0 to 25%. Moreover, on FAAH, the pIC50 was 5.00 to 6.00 and the inhibition at 1 µM lay in the range of 0 to 25%. Moreover, on MAGL [2], the pIC50 is ≥ 7.00 and the inhibition at 1 µM is ≥ 75%.

Regarding `CC(=O)Nc1ccn(C(=O)N2CCC3(CCCN3Cc3ccc(C(F)(F)F)cc3Oc3nc4ccccc4s3)CC2)n1` [Example 85, N-(1-(1-(2-(benzo[d]thiazol-2-yloxy)-4-(trifluoromethyl)benzyl)-1,8-diazaspiro[4.5]decane-8-carbonyl)-1H-pyrazol-3-yl)acetamide], the inhibition at 5 mg/kg on MAGL [1] was 0 to 25%. Also, the figures for the pIC50 at FAAH and on MAGL [2] were 5.00 to 6.00 and ≥ 7.00, respectively. In addition, the inhibition at 1 µM on FAAH was 0 to 25%; at MAGL [2] it was ≥ 75%.

For `CC(=O)Nc1ccn(C(=O)N2CCC3(CCCN3Cc3cc(OC4CCS(=O)(=O)CC4)cc(C(F)(F)F)c3)CC2)n1` [Example 88, N-(1-(1-(3-((1,1-dioxidotetrahydro-2H-thiopyran-4-yl)oxy)-5-(trifluoromethyl)benzyl)-1,8-diazaspiro[4.5]decane-8-carbonyl)-1H-pyrazol-3-yl)acetamide], on MAGL [1], the inhibition at 5 mg/kg was in the range of 0 to 25%. For the same compound, the values for the pIC50 at FAAH and on MAGL [2] were 5.00 to 6.00 and ≥ 7.00, respectively. Besides, the inhibition at 1 µM is 0 to 25% at FAAH and ≥ 75% at MAGL [2].

For the compound `CC(=O)Nc1ccn(C(=O)N2CCC3(CCCN3Cc3cc(OCC(=O)N4CCCC4)cc(C(F)(F)F)c3)CC2)n1` [Example 90, N-(1-(1-(3-(2-oxo-2-(pyrrolidin-1-yl)ethoxy)-5-(trifluoromethyl)benzyl)-1,8-diazaspiro[4.5]decane-8-carbonyl)-1H-pyrazol-3-yl)acetamide], the inhibition at 5 mg/kg on MAGL [1] is 0 to 25%. Moreover, on FAAH, the pIC50 is 5.00 to 6.00 and the inhibition at 1 µM fell in the range of 0 to 25%. For the same compound, at MAGL [2], the pIC50 was ≥ 7.00 and the inhibition at 1 µM is ≥ 75%.

As for `CC(=O)Nc1ccn(C(=O)N2CCC3(CCCN3Cc3ccc(C(F)(F)F)c(C)c3)CC2)n1` [Example 93, N-(1-(1-(3-methyl-4-(trifluoromethyl)benzyl)-1,8-diazaspiro[4.5]decane-8-carbonyl)-1H-pyrazol-3-yl)acetamide], at MAGL [1], the inhibition at 5 mg/kg lay in the range of 50 to 75%. Besides, at FAAH, the pIC50 is 5.00 to 6.00 and the inhibition at 1 µM lay within 0 to 25%. At MAGL [2], the pIC50 is ≥ 7.00 and the inhibition at 1 µM is ≥ 75%.

As for `CCc1cc(CN2CCCC23CCN(C(=O)n2ccc(NC(C)=O)n2)CC3)ccc1F` [Example 95, N-(1-(1-(3-ethyl-4-fluorobenzyl)-1,8-diazaspiro[4.5]decane-8-carbonyl)-1H-pyrazol-3-yl)acetamide], the inhibition at 5 mg/kg at MAGL [1] was ≥ 75%. On FAAH, the pIC50 was 5.00 to 6.00 and the inhibition at 1 µM was 0 to 25%. At MAGL [2], the pIC50 is ≥ 7.00 and the inhibition at 1 µM is ≥ 75%.

Consider `CC(=O)Nc1ccn(C(=O)N2CCC3(CCCN3Cc3ccc(N4CCOCC4)c(C(F)(F)F)c3)CC2)n1` [Example 101, N-(1-(1-(4-morpholino-3-(trifluoromethyl)benzyl)-1,8-diazaspiro[4.5]decane-8-carbonyl)-1H-pyrazol-3-yl)acetamide], for which the inhibition at 5 mg/kg on MAGL [1] lay within 25 to 50%. At FAAH, the pIC50 was 5.00 to 6.00 and the inhibition at 1 µM was 0 to 25%. On MAGL [2], the pIC50 was ≥ 7.00 and the inhibition at 1 µM is ≥ 75%.

Regarding `CC(=O)Nc1ccn(C(=O)N2CCC3(CCCN3Cc3ccc(N4CCCC4)c(C(F)(F)F)c3)CC2)n1` [Example 102, N-(1-(1-(4-(pyrrolidin-1-yl)-3-(trifluoromethyl)benzyl)-1,8-diazaspiro[4.5]decane-8-carbonyl)-1H-pyrazol-3-yl)acetamide], the inhibition at 5 mg/kg on MAGL [1] was in the range of 0 to 25%. Besides, the pIC50 on FAAH was 5.00 to 6.00; on MAGL [2], ≥ 7.00. Also, the inhibition at 1 µM is 0 to 25% at FAAH and ≥ 75% at MAGL [2].

Take `CC(=O)Nc1ccn(C(=O)N2CCC3(CCCN3Cc3ccc(Cl)c(N4CCOCC4)c3)CC2)n1` [Example 103, N-(1-(1-(4-chloro-3-morpholinobenzyl)-1,8-diazaspiro[4.5]decane-8-carbonyl)-1H-pyrazol-3-yl)acetamide]: the inhibition at 5 mg/kg at MAGL [1] was 0 to 25%. For the same compound, on FAAH, the pIC50 was 5.00 to 6.00 and the inhibition at 1 µM lay in the range of 0 to 25%. Further, at MAGL [2], the pIC50 is ≥ 7.00 and the inhibition at 1 µM was ≥ 75%.

In the case of `CC(=O)Nc1ccn(C(=O)N2CCC3(CCCN3Cc3ccc(Cl)c(N4CCCC4)c3)CC2)n1` [Example 104, N-(1-(1-(4-chloro-3-(pyrrolidin-1-yl)benzyl)-1,8-diazaspiro[4.5]decane-8-carbonyl)-1H-pyrazol-3-yl)acetamide], the inhibition at 5 mg/kg at MAGL [1] fell in the range of 0 to 25%. In addition, at FAAH, the pIC50 was 5.00 to 6.00 and the inhibition at 1 µM fell in the range of 0 to 25%. On MAGL [2], the pIC50 was ≥ 7.00 and the inhibition at 1 µM is ≥ 75%.

`CC(=O)Nc1ccn(C(=O)N2CCC3(CCCN3Cc3ccc(C(F)(F)F)c(N4CCOCC4)c3)CC2)n1` [Example 105, N-(1-(1-(3-morpholino-4-(trifluoromethyl)benzyl)-1,8-diazaspiro[4.5]decane-8-carbonyl)-1H-pyrazol-3-yl)acetamide]: at MAGL [1], the inhibition at 5 mg/kg is 25 to 50%. In addition, on FAAH, the negative-log IC50 (pIC50) was 5.00 to 6.00 and the inhibition at 1 µM fell in the range of 0 to 25%. On MAGL [2], the pIC50 was ≥ 7.00 and the inhibition at 1 µM is ≥ 75%.

With `CC(=O)Nc1ccn(C(=O)N2CCC3(CCCN3Cc3ccc(C(F)(F)F)c(N4CCCC4)c3)CC2)n1` [Example 106, N-(1-(1-(3-(pyrrolidin-1-yl)-4-(trifluoromethyl)benzyl)-1,8-diazaspiro[4.5]decane-8-carbonyl)-1H-pyrazol-3-yl)acetamide], the inhibition at 5 mg/kg at MAGL [1] fell in the range of 25 to 50%. Further, the results for the pIC50 at FAAH and at MAGL [2] were 5.00 to 6.00 and ≥ 7.00, respectively. In addition, the inhibition at 1 µM is 0 to 25% at FAAH and ≥ 75% on MAGL [2].

With `CC(=O)Nc1ccn(C(=O)N2CCC3(CCCN3Cc3ccc(C(F)(F)F)c(C(N)=O)c3)CC2)n1` [Example 107, 5-((8-(3-acetamido-1H-pyrazole-1-carbonyl)-1,8-diazaspiro[4.5]decan-1-yl)methyl)-2-(trifluoromethyl)benzamide], the inhibition at 5 mg/kg at MAGL [1] was in the range of 0 to 25%. Besides, on FAAH, the pIC50 is 5.00 to 6.00 and the inhibition at 1 µM was in the range of 0 to 25%. Besides, on MAGL [2], the pIC50 is 6.00 to 7.00 and the inhibition at 1 µM is ≥ 75%.

Turning to `CC(=O)Nc1ccn(C(=O)N2CCC3(CCCN3Cc3ccc(C(N)=O)c(C(F)(F)F)c3)CC2)n1` [Example 109, 4-((8-(3-acetamido-1H-pyrazole-1-carbonyl)-1,8-diazaspiro[4.5]decan-1-yl)methyl)-2-(trifluoromethyl)benzamide], the inhibition at 5 mg/kg on MAGL [1] was 0 to 25%. Moreover, at FAAH, the pIC50 was 5.00 to 6.00 and the inhibition at 1 µM was 0 to 25%. In addition, at MAGL [2], the pIC50 is ≥ 7.00 and the inhibition at 1 µM was ≥ 75%.

On to `CS(=O)(=O)Nc1ccn(C(=O)N2CCN(Cc3cccc(Cl)c3N3CC[C@H](CF)C3)CC2)n1` [Example 121, (S)-N-(1-(4-(3-chloro-2-(3-(fluoromethyl)pyrrolidin-1-yl)benzyl)piperazine-1-carbonyl)-1H-pyrazol-3-yl) methanesulfonamide], for which, at MAGL [1], the inhibition at 5 mg/kg was in the range of 50 to 75%. On FAAH, the pIC50 was 5.00 to 6.00 and the inhibition at 1 µM fell in the range of 0 to 25%. In addition, on MAGL [2], the pIC50 is ≥ 7.00 and the inhibition at 1 µM is ≥ 75%.

(Values after US10519134B2, “Pyrazole compounds and methods of making and using same” (Lundbeck La Jolla Research Center, Inc., priority 2015, dated 2019).)
